# US9006225B2, “Stable pharmaceutical composition” (Asahi Kasei Pharma Corporation, priority 2008, dated 2015)
# Tests used:
# Assay type in all cases: physicochemical
# [1] = Coloring of solutions of the compound of Preparation Example 7 with additives after storage (Experimental Example 5); set-up: key to Degree of coloring, Sample solution after storage at 60° C. for 6 days / Degree of coloring, Control solution after storage at 60° C. for 6 days: −: No coloring; +: Coloring; ++: Marked coloring; conditions: for Degree of coloring, Sample solution after storage at 60° C. for 6 days: 10 mg compound of Preparation Example 7 in methanol 2 mL + 1 mL of 10 mg/mL aqueous solution of the additive; for Coloring of the solution of the compound of Preparation Example 7 by the influence of the additive: 60° C. for 6 days, methanol/water; for Degree of coloring, Control solution after storage at 60° C. for 6 days: control: 10 mg compound of Preparation Example 7 in methanol 2 mL + 1 mL purified water, no additive
# Description: The compound obtained according to the method of Preparation Example 7 was weighed in an amount of 10 mg in a stoppered test tube, added with methanol (2 mL) for dissolution, and then further added with a 10 mg/mL aqueous solution of each of additives shown in Table 5 (1 mL) to prepare a sample solution. Separately, the compound obtained according to the method of Preparation Example 7 was weighed in an amount of 10 mg in a stoppered test tube, added with methanol (2 mL) for dissolution, and then further added with purified water (1 mL) to prepare a control solution. The prepared sample solutions and the control solution were stored in an incubator (Minijet Oven, Toyama Sangyo) at 60° C. for 6 days.
# [2] = Coloring of compound solutions with glucose after storage (Experimental Example 4); set-up: key: −: No coloring; +: Coloring; ++: Marked coloring; conditions: for Degree of coloring, Sample solution after storage at 60° C. for 6 days: 10 mg compound in methanol 2 mL + 1 mL glucose aqueous solution 10 mg/mL; for Degree of coloring, Control solution after storage at 60° C. for 6 days: 10 mg compound in methanol 2 mL + 1 mL purified water (no glucose)
# Description: The compounds of Preparation Examples 2 to 5 and 7 were each weighed in an amount of 10 mg in a stoppered test tube, added with methanol (2 mL), dissolved in the methanol, and then further added with a glucose aqueous solution (1 mL) of 10 mg/mL concentration to prepare sample solutions. Separately, the compounds of Preparation Examples 2 to 5 and 7 were each weighed in an amount of 10 mg in a stoppered test tube, added with methanol (2 mL), dissolved in the methanol, and then further added with purified water (1 mL) to prepare control solutions. The prepared sample solutions and the control solutions were stored in an incubator (Minijet Oven, Toyama Sangyo) at 60° C. for 6 days.
# [3] = Solubility of crystal forms in an aqueous solvent
SMILES,"Degree of coloring, Sample solution after storage at 60° C. for 6 days [1]",Coloring of the solution of the compound of Preparation Example 7 by the influence of the additive [1],"Degree of coloring, Control solution after storage at 60° C. for 6 days [1]","Degree of coloring, Sample solution after storage at 60° C. for 6 days [2]","Degree of coloring, Control solution after storage at 60° C. for 6 days [2]",Solubility in an aqueous solvent compared with the type B crystals [3]
O=C(CO)[C@@H](O)[C@H](O)[C@H](O)CO [Fructose],+,coloring,−,,,
"Cn1ccc2cc(-c3cc(CCC(=O)O)cc(N)c3OCC3CCCC3)ccc21 [Compound of Preparation Example 4, 3-[3-amino-4-cyclopentylmethyloxy-5-(1-methyl-1H-indol-5-yl)phenyl]propionic acid]",,,,++,−,
"Nc1cc(CCC(=O)O)cc(-c2ccc3[nH]ncc3c2)c1OC1Cc2ccccc2C1 [Compound of Preparation Example 5, 3-[3-amino-4-(indan-2-yloxy)-5-(1H-indazol-5-yl)phenyl]propionic acid]",,,,+,−,
"Nc1cc(CCC(=O)O)cc(-c2ccc3[nH]ccc3c2)c1OCC1CCCC1 [Compound of Preparation Example 3, 3-[3-amino-4-cyclopentylmethyloxy-5-(1H-indol-5-yl)phenyl]propionic acid]",,,,++,−,
"Cn1ncc2cc(-c3cc(CCC(=O)O)cc(N)c3OC3Cc4ccccc4C3)ccc21 [Compound of Preparation Example 7, 3-[3-amino-4-(indan-2-yloxy)-5-(1-methyl-1H-indazol-5-yl)phenyl]propionic acid]",,,,++,−,higher
OC[C@@H](O)[C@@H](O)[C@H](O)[C@H](O)CO [D-Mannitol],−,no coloring,−,,,
OC[C@@H](O)[C@@H](O)CO [Erythritol],−,no coloring,−,,,
"Cc1ccc(CCOc2c(N)cc(CCC(=O)O)cc2-c2ccc3ccccc3c2)cc1 [Compound of Preparation Example 2, 3-{3-amino-4-[2-(4-methylphenyl)ethyloxy]-5-(naphthalen-2-yl)phenyl}propionic acid]",,,,+,−,

# Next, values leading:
"Degree of coloring, Sample solution after storage at 60° C. for 6 days [1]",Coloring of the solution of the compound of Preparation Example 7 by the influence of the additive [1],"Degree of coloring, Control solution after storage at 60° C. for 6 days [1]","Degree of coloring, Sample solution after storage at 60° C. for 6 days [2]","Degree of coloring, Control solution after storage at 60° C. for 6 days [2]",Solubility in an aqueous solvent compared with the type B crystals [3],SMILES
++,coloring,−,,,,O=C[C@H](O)[C@@H](O)[C@H](O)CO [Xylose]
+,coloring,−,,,,OC[C@H]1O[C@@H](O[C@H]2[C@H](O)[C@@H](O)C(O)O[C@@H]2CO)[C@H](O)[C@@H](O)[C@H]1O (some centres unmarked) [Lactose]
−,no coloring,−,,,,OC[C@H]1O[C@H](O[C@H]2O[C@H](CO)[C@@H](O)[C@H](O)[C@H]2O)[C@H](O)[C@@H](O)[C@@H]1O [Trehalose]
+,coloring,−,,,,OC[C@H]1O[C@H](O[C@H]2[C@H](O)[C@@H](O)[C@H](O)O[C@@H]2CO)[C@H](O)[C@@H](O)[C@@H]1O [Maltose]
−,no coloring,−,,,,OC[C@H]1O[C@@](CO)(O[C@H]2O[C@H](CO)[C@@H](O)[C@H](O)[C@H]2O)[C@@H](O)[C@@H]1O [Sucrose]
